Source: patent US7081495B1, “Cationic compounds and their use as macro molecular carriers” (School of Pharmacy, University of London, priority 1998, dated 2006)
“And” between values parts separate entries of the source, which are not always exact repeats. Identical values can stand only once. Non-standard residues stand in square brackets, D forms with d. Residues, ends and D or L forms follow the SMILES beside them. ξ: configuration not given here. *: point of attachment. X1 = NCCCC[C@H](N)C(=O)NCCCC[C@H](NC(=O)[C@@H](N)CCCCN)C(=O)*; ξGly(dodecyl) = CCCCCCCCCCCCC(N)C(=O)O

Columns and labels:
[1] = In vivo distribution of 3H-dendrimer (liquid scintillation counting); design: species or system C57BL/6 mice
Experimental: Tritiated dendrimer synthesised as described in Example 1 above except 3H labelled BOC-lysine was prepared quantitatively from 3H-lysine purchased commercially based on the method of Keller et al Organ. Synth. 63, 160–170 (1985) (1a: Specific Activity 31Bq/ug @ 5 μg/μl in dH20) were made up to 1.2 μg/μl with 0.9% w/v sodium chloride BP. For each animal, complexes were formed at room temperature by adding 5 μg pCEP4hFIXint (as used in Example 11) in 100 μl 0.9% sodium chloride BP) dropwise to 100 μl dendrimer solution (dendrimer:DNA charge ratio about 4:1) with moderate vortexing. The complexes were then sonicated on ice with a hand-held probe at low power setting several times with three second pulses.
Male C57BL/6mice (8–10 weeks) were divided into two groups. The first group (n=8) were given approx. 150–200 μl of the complexes (exact dose determined by difference in weight of syringe pre/post injection) via tail vein injection. The second (n=4) were administered 150 μl of the complexes in a dosed food particle (isolation/observation confirmed ingestion of the food particle). At time-points 2 hours, 24 hours, 4 days, 7 days (group 1) and 24 hours, and 7 days (group 2) the mice were sacrificed and organs/fluids harvested. Blood and urine were collected when possible post mortem, the former in citrate tubes. Organs were weighed and immediately immersed in liquid nitrogen cooled isopentane to be kept at −80° C.
Organ samples for liquid scintillation counting (for detecting dendrimer) were processed as per “Packard Counting Solutions” protocol for samples <30 mg using Solvable (Packard) for all tissues except blood, urine and digestive tract tissues that were dissolved using Soluene-350 (Packard). The LSC cocktail used was Ultima Gold. Counting time was 10 minutes. Detection of episomal DNA was performed by PCR using primers that amplified a 460 bp section of the plasmid of the 3′ end of hFIX cDNA and the SV40 pA region

[2] = test system: Human Embryonic Kidney (HEK) 293 cells; test: Transient transfection of HEK 293 cells with GABAA receptor α1 subunit cDNA; assay type: cell-based; conditions: […] compound 1a
Experimental: Human Embryonic Kidney (HEK) 293 cells were sub-cultured onto poly-L-lysine coated 35 mm petri dishes such that 24 h later the cells were still sub-confluent. Culture media was replaced on the morning of the transfection procedure. Cells were returned to the CO2—incubator ([…]/95% air) for 3 h.
Compound 1a was incubated with a GABAA receptor αl subunit cDNA-pCDM8 (Mammalian cell expression vector Thompson C. L. et al Neuroscience Let. 144 53–56 (1992)) construct (Fc2 μg/ml) in DMEM at weight ratios of 1:1, 10:1 and 100:1 (1a:α1 cDNA) for 30 minutes prior to transfection.
Cells were washed 3× with serum-free DMEM prior to application of compound 1a/GABAA receptor α subunit cDNA-vector (1ml/dish). Dishes were returned to the incubator (37° C.) for 5 h. Media was then supplemented with DMEM/10% FCS (1 ml/dish), returned to the incubator for 24 h. […]
24 h later the cells were washed 3× with phosphate-buffered saline and then fixed with methanol (−20° C., 25 min, 2 dishes from each regime) or 4% parafarmaldehyde (room temp., 15 min, 2 dishes from each regime). The cells were then processed for GABAA receptor α1 subunit-like immunoreactivity according to Thompson et al. Immunoreactivity was detected by diaminobenzidine staining and visualised under the light microscope.

[3] = test system: Rat red blood cells; test: RBC lysis, compound alone or complexed with pSVβgal; conditions: pSVβgal 0.0125 μg/μl, 1 hour at 37° C.
Experimental: Rat red blood cells were obtained by centrifugation of complete blood. A 2% suspension of cells was made in phosphate buffered saline. […] The lysate supernatant was recovered by centrifugation and the absorbance measured at 540 nm. (Concentration of pSVβgal was 0.0125 μg/μl).

## CCCCCCCCCCCCC(NC(=O)C(CCCCCCCCCCCC)NC(=O)C(CCCCCCCCCCCC)NC(=O)[C@H](CCCCNC(=O)[C@H](CCCCNC(=O)[C@@H](N)CCCCN)NC(=O)[C@@H](N)CCCCN)NC(=O)[C@H](CCCCNC(=O)[C@@H](N)CCCCN)NC(=O)[C@@H](N)CCCCN)C(N)=O (some centres unmarked) [Compound 1a] (H-KK(Lys)K(X1)[ξGly(dodecyl)][ξGly(dodecyl)][ξGly(dodecyl)]-NH2)
[1]; Oral, 24 hours
  % age Total Dose, Heart: 0.53%
  % age Total Dose, Kidney: 0.52% and 0.29%
  % age Total Dose, Liver: 3.70% and 1.84%
  % age Total Dose, Lungs: 0.78%
  % age Total Dose, Spleen: 0.16% and 0.13%
  % age Total Dose, Urine: 0.48% and 0.75%
[1]; i.v., 2 hours
  % age Total Dose, Heart: 0.22% and 0.06%
  % age Total Dose, Kidney: 0.34% and 0.48%
  % age Total Dose, Liver: 10.35% and 2.07%
  % age Total Dose, Lungs: 0.47% and 0.13%
  % age Total Dose, Spleen: 1.00% and 0.30%
  Activity, Urine: (21 Bq/0.1 ml)
[1]; i.v., 24 hours
  % age Total Dose, Heart: 0.80% and 4.89%
  % age Total Dose, Kidney: 0.57% and 1.63%
  % age Total Dose, Liver: 8.05% and 0.71%
  % age Total Dose, Spleen: 0.61% and 0.07%
  % age Total Dose, Urine: 0.52%
[1]; i.v., 4 days
  % age Total Dose, Heart: 1.48%
  % age Total Dose, Lungs: 0.95%
  % age Total Dose, Muscle: 0.03%
  % age Total Dose, Spleen: 0.18%
  % age Total Dose, Urine: 1.3%
[1]; i.v., 7 days
  % age Total Dose, Heart: 1.53%
  % age Total Dose, Kidney: 0.89% and 5.68%
  % age Total Dose, Liver: 2.91% and 6.53%
  % age Total Dose, Lungs: 0.16%
  % age Total Dose, Spleen: 0.53% and 0.51%
[2]
  cell viability: deleterious to cell viability

## CCCCCCCCCCCCC(NC(=O)C(CCCCCCCCCCCC)NC(=O)C(CCCCCCCCCCCC)NC(=O)[C@H](CCCCNC(=O)[C@H](CCCCNC(=O)[C@H](CCCCNC(=O)[C@@H](N)CCCCN)NC(=O)[C@@H](N)CCCCN)NC(=O)[C@H](CCCCNC(=O)[C@@H](N)CCCCN)NC(=O)[C@@H](N)CCCCN)NC(=O)[C@H](CCCCNC(=O)[C@H](CCCCNC(=O)[C@@H](N)CCCCN)NC(=O)[C@@H](N)CCCCN)NC(=O)[C@H](CCCCNC(=O)[C@@H](N)CCCCN)NC(=O)[C@@H](N)CCCCN)C(N)=O (some centres unmarked) [Compound 1b]
[3]
  effect of complexing to DNA on erythrocyte lysis: reduces levels of erythrocyte lysis
